Legend:
[1] = system: KB (human nasopharyngeal carcinoma) cell line; assay: Cytotoxicity against KB cell line; assay type: cell-based
[2] = system: LoVo (human colon-carcinoma) cell line; assay: Cytotoxicity against LoVo cell line; assay type: cell-based
[3] = system: murine leukemia (L1210 or P388), murine solid tumor, human solid tumor and low malignancy fibroblast (LML) cells; settings: for Differential in Zone Units, Corbett Assay: μg/disk as for E3; for Type of Cytotoxicity, Corbett Assay: μg/disk: 1 12.5, 2 25, 3 25, 4 20, 5 2.9, 6 250, 8 30, 5-FU 2.5, VP-16 5, taxol 0.2, ^c selective against drug-sensitive and drug-resistant cell lines, ^d drug-sensitive cell lines only
[4] = system: Colon 38 (colon adenocarcinoma #38); settings: Exp # 1560; SC Colon 38; 8 inj. IV; total dose 10.3 mg/kg
Description: (§1) Gross log kill is defined as T-C/3.2 Td where T is the median time in days for the tumors of the treated group to reach 750 mg, C is the median time in days for the tumors of the control group to reach 750 mg, and Td is the tumor volume doubling time.

[5] = system: H125 Human Adenosq-lung; settings: Exp # 1823; SC H125 Human Adenosq-lung, SCID mice; 8 inj. IV; total dose 14.4 mg/kg
Description: as §1

[6] = system: murine and human tumors implanted in mice
Description: as §1

[7] = system: strains of Cryptococcus; settings: found by researchers at Merck; cited from earlier work
[8] = system: MX-1 Human Breast; assay: In vivo activity, SC MX-1 tumor; settings: Exp # 1806; SC MX-1 Human Breast, SCID mice; 8 inj. IV; total dose 12 mg/kg
Description: as §1

[9] = system: M17/0 (Adr. Sens.); assay: In vivo activity, SC M17/0 tumor; settings: Exp # 1833; SC M17/0 (Adr. Sens.); 5 inj. IV; total dose 5.4 mg/kg
Description: as §1

[10] = system: LNCaP Human Prostate; assay: In vivo activity, SC LNCaP tumor; settings: Exp # 1841, 6 inj. IV, total dose 6.5 mg/kg
Description: as §1

[11] = system: Human Sm Cell L. DMS273 SCID; assay: In vivo activity, SC DMS273 tumor; settings: Exp # 1596, 6 inj. IV, total dose 7.3 mg/kg
Description: as §1

[12] = system: Colon 51 (colon adenocarcinoma #51); assay: In vivo activity, SC Colon 51 tumor; settings: Exp # 1636, 7 inj. IV, total dose 28.1 mg/kg
Description: as §1

[13] = system: Mam 16/C (mammary #16/C); assay: In vivo activity, SC Mam 16/C tumor; settings: Exp # 1720, 5 inj. IV, total dose 13.2 mg/kg
Description: as §1

[14] = system: SKOV3 (human ovarian carcinoma) cell line; assay: Cytotoxicity against SKOV3 cell line; settings: Table 2
[15] = system: Mam 16/Taxol (taxol-resistant mammary #16/C/RP); assay: In vivo activity, SC Mam 16/Taxol tumor; settings: Exp # 1733, 5 inj. IV, total dose 16.5 mg/kg
Description: as §1

[16] = system: A-10 rat aortic smooth muscle cells; assay type: cell-based; settings: A-10 cells
Description: A-10 cells were grown to near-confluency on glass coverslips in BME/10% FBS. Compounds in PBS were added to the indicated final concentrations and cells were incubated for an additional 24 hours. For the staining of microtubules and intermediate filaments, the cells were fixed with cold methanol and incubated with PBS containing 10% calf serum to block nonspecific binding sites. Cells were then incubated at 37° C. for 60 min with either monoclonal anti-p-tubulin or with monoclonal anti-vimentin at dilutions recommended by the manufacturer. Bound primary antibodies were subsequently visualized by a 45-minute incubation with fluorescein-conjugated rabbit antimouse IgG. The coverslips were mounted on microscope slides and the fluorescence patterns were examined and photographed using a Zeiss Photomicroscope Ill equipped with epifluorescence optics for fluorescein. […] PBS containing 100 nM TRITC-phalloidin was then added and the mixture was allowed to incubate for 45 min at 37° C. The cells were washed rapidly three times with PBS before the coverslips were mounted and immediately photographed as described above.
After 24 hours, microtubules and vimentin intermediate filaments were visualized by indirect immunofluorescence and microfilaments were stained using TRITC-phalloidin. The morphological effects of each drug were examined.
After 24 hours, microtubule organization was examined by immunofluorescence as described above.
The cells were then washed and incubated in drug-free medium for periods of 1 hour or 24 hours.

[17] = system: SKOV3 cells (human ovarian carcinoma); assay: Cell proliferation assay (SRB staining), SKOV3 cells; assay type: cell-based; settings: SKOV3 cells treated 24 hours with IC50 doses, then drug-free medium
[18] = 24 hours, 2 μM cytochalasin B, 100 nM vinblastine or 10 nM cryptophycin compounds

COc1ccc(C[C@H]2NC(=O)/C=C/C[C@@H]([C@H](C)[C@H]3O[C@@H]3c3ccccc3)OC(=O)[C@H](CC(C)C)OC(=O)[C@H](C)CNC2=O)cc1Cl [Cryptophycin 1]
KB IC50 ([1]; Table 1): 0.005 ng/mL
KB IC50 ([1]; Table 2): 0.0025 ng/mL
LoVo IC50 ([2]; Table 1): 0.003 ng/mL
LoVo IC50 ([2]; Table 2): 0.001 ng/mL
Differential in Zone Units, Corbett Assay [3]: > 400 Zone Units
Type of Cytotoxicity, Corbett Assay [3]: E/T
Cures [4]: 0/5
Log Kill [4]: 1.5
T/C [4]: 6%
% Body Wt. Loss at Nadir [5]: -15%
Cures [5]: 0/5
Log Kill [5]: 1.1
T/C [5]: 9%
dead [5]: 1/5
tumor burden T/C ([6]; five early stage murine tumors (colon #38, #51, taxol-sensitive and taxol-resistant mammary #16/C/RP, pancreatic #03) and MX-1 breast, H125 lung in SCID mice): less than 10%
lethal toxicity observed during testing ([6]; in vivo testing): attributed to leucopenia
activity against strains of Cryptococcus [7]: very active against strains of Cryptococcus
% Body Wt. Loss at Nadir [8]: -3%
Cures [8]: 0/5
Log Kill [8]: 2.0
T/C [8]: 3%
% Body Wt. Loss at Nadir [9]: -10%
Log Kill [9]: < 1
T/C [9]: 23%
% Body Wt. Loss at Nadir [10]: -6%
T/C [10]: 26%
% Body Wt. Loss at Nadir [11]: 0%
Cures [11]: 0/5
Log Kill [11]: < 1
T/C [11]: 27%
% Body Wt. Loss at Nadir [12]: -11%
Log Kill [12]: 1.3
T/C [12]: 7%
% Body Wt. Loss at Nadir [13]: -1%
Cures [13]: 0/5
Log Kill [13]: 1.4
T/C [13]: 5%
SKOV3 IC50 [14]: 0.026 ng/mL
% Body Wt. Loss at Nadir [15]: 0%
Log Kill [15]: 1.8
T/C [15]: 2%

C=C1[C@@H](C)[C@H]2[C@H](Cc3ccccc3)NC(=O)[C@]23OC(=O)/C=C/[C@H](O)CCC[C@@H](C)C/C=C/[C@H]3[C@@H]1O [Cytochalasin B, cytochalasin B]
effect on microtubules [16, 18]: did not affect the distribution of either microtubules or intermediate filaments
effect on vimentin intermediate filaments [16, 18]: did not affect the distribution of either microtubules or intermediate filaments

CC(=O)O[C@H]1C(=O)[C@@]2(C)[C@H]([C@H](OC(=O)c3ccccc3)[C@]3(O)C[C@H](OC(=O)[C@H](O)[C@@H](NC(=O)c4ccccc4)c4ccccc4)C(C)=C1C3(C)C)[C@]1(OC(C)=O)CO[C@@H]1C[C@@H]2O [taxol, reference compound]
increase in cell number in the 24 hours following removal of the drug [17]: 0.2- to 0.4 fold
Differential in Zone Units, Corbett Assay [3]: ≥ 400 Zone Units
Type of Cytotoxicity, Corbett Assay [3]: M/H/T

CC[C@]1(O)C[C@@H]2CN(CCc3c([nH]c4ccccc34)[C@@](C(=O)OC)(c3cc4c(cc3OC)N(C)[C@H]3[C@@](O)(C(=O)OC)[C@H](OC(C)=O)[C@]5(CC)C=CCN6CC[C@]43[C@@H]65)C2)C1 [vinblastine]
increase in cell number in the 24 hours following removal of the drug [17]: approximately 3 fold
reversibility of microtubule depolymerization after removal of drug ([16]; 100 nM vinblastine or 10 nM cryptophycins for 24 hr, then drug-free medium 1 hour or 24 hours): complete morphological recovery by 24 hour
microtubule depolymerization after taxol pretreatment ([16]; 3 hours 10 μM taxol, then 100 nM vinblastine or 10 nM cryptophycin compound, 24 hours): pretreatment with taxol prevented microtubule depolymerization in response to vinblastine
effect on microfilaments [16, 18]: Neither compound affected microfilament organization
effect on vimentin intermediate filaments [16, 18]: vimentin intermediate filaments collapsed

— US5955423A (priority 1995, dated 1999)
